The test system of test [1] is 1st passage tumor transplants of CD8F1 spontaneous breast tumors. The test can be described thus: Effect of MMPR + 6-AN + PALA on tumor ATP pools in CD8F1 mice. Format: in vivo. On the set-up: tumor ATP levels 48 hours after treatment, % of normal (saline-treated control tumors) / 6 HR % Saline Control / 24 HR % Saline Control / 48 HR % Saline Control / 72HR % Saline Control / 6 HW % Saline Control: concentration or dose not given beside the values.

Test [2] concerns first passage CD8F1 advanced spontaneous breast tumors. The test is described as follows: in vivo. From the text:
Table 1 evaluates Saline-treated controls (Group 1), 6-AN (Group 2) and DDP (Group 3) as single agents, and in combination (Group 4), against 1st generation subcutaneous solid tumor transplants of advanced CD8F, spontaneous breast tumors. In the same experiment (i.e., same tumor transplants), is a group adding 6-AN to PALA and MMPR (MAP, Group 5), as well as a group with MAP administered prior to DDP (Group 6).
Each experiment is from a different brei (i.e., each from a different group of 3-4 spontaneous tumors) and, therefore, each transplant group contained a different number of chemotherapeutically sensitive and/or resistant tumor cells.

The subject of test [3] is human soft tissue sarcoma cell lines. The test is described as follows: Sensitivity of human soft tissue sarcoma cell lines to L-alanosine by MTAP status. The class given is cell-based. The conditions noted are these: cells lacking MTAP activity. From the text:
An examination of MTAP expression in ten human soft tissue sarcoma cell lines found MTAP not detectable in three of the ten cell lines. These three cell lines were greater than 10-fold more sensitive to L-alanosine than the cell lines containing MTAP. […] In vivo studies of L-alanosine+MMPR, as well as the addition of 6-AN, are being evaluated (82).
An examination of MTAP expression in ten human soft tissue sarcoma cell lines found MTAP not detectable in four of the ten cell lines. These four cell lines were sensitive to L-alanosine.

The next test concerns mouse lymphoma cells. To be noted: in vitro; cited from earlier work.

For the molecule `CSc1ncnc2c1ncn2[C@@H]1O[C@H](CO)[C@@H](O)[C@H]1O` [MMPR, 6-methylmercaptopurine riboside], the “tumor ATP levels 48 hours after treatment, % of normal (saline-treated control tumors)” value in test [1] (48 hours after administration) was 34%. In test [1] (murine breast tumors in vivo, time not stated in the sentence), the “tumor ATP level, % of normal” value turned out to be 34%. Further, the “6 HW % Saline Control” value in test [1] (seventh series copy of Table 1, 6 hr) amounted to 47%. The “24 HR % Saline Control” value is on record as 47% in test [1] (seventh series copy of Table 1, 24 hr) and 47% in test [1] (tumor ATP 24 hr after i.p. injection, % of saline control). Besides, the “48 HR % Saline Control” value in test [1] (seventh series copy of Table 1, 48 hr) came to 34%; in test [1] (tumor ATP 48 hr after i.p. injection, % of saline control) it was 34%. For the same molecule, the “72HR % Saline Control” value in test [1] (seventh series copy of Table 1, 72 hr) stood at 127%; in test [1] (tumor ATP 72 hr after i.p. injection, % of saline control) it was 127%. For the same molecule, the “6 HR % Saline Control” value in test [1] (tumor ATP 6 hr after i.p. injection, % of saline control) is given as 47%. Also, the “effect on tumor growth / anticancer activity (in words)” value in test [2] (advanced CD8F1 breast tumors in mice) is “tumor growth was inhibited”. Also, in test [2] (three pooled published experiments, MMPR, 6-AN, PALA alone and combined, P.R. = 50% or more tumor shrinkage, three courses, 1-week interval), the “partial tumor regression (P.R.) rate” value is recorded as “no partial regressions”. For the same molecule, the “effect of adding MMPR to L-alanosine (in words)” value in test [3] is given as “further enhanced the sensitivity of the cells lacking MTAP activity to L-alanosine”. In the test on mouse lymphoma cells, the “cell growth, % of control” value is on record as 25%. For the same molecule, in the test with mouse lymphoma cells, the “intracellular tumor cell ATP pool, % of normal (control)” value is 49%.
